Consider nine molecules from patent US20260055097A9, “NRF2 PROTEIN DEGRADERS” (Ganymede Oncology, Inc., priority 2022, published 2026).

Common to all, as to format: cell-based
One experiment deals with T1, Nrf2 (Homo sapiens, UniProt Q16236).
T1 sequence (Q16236 1-605): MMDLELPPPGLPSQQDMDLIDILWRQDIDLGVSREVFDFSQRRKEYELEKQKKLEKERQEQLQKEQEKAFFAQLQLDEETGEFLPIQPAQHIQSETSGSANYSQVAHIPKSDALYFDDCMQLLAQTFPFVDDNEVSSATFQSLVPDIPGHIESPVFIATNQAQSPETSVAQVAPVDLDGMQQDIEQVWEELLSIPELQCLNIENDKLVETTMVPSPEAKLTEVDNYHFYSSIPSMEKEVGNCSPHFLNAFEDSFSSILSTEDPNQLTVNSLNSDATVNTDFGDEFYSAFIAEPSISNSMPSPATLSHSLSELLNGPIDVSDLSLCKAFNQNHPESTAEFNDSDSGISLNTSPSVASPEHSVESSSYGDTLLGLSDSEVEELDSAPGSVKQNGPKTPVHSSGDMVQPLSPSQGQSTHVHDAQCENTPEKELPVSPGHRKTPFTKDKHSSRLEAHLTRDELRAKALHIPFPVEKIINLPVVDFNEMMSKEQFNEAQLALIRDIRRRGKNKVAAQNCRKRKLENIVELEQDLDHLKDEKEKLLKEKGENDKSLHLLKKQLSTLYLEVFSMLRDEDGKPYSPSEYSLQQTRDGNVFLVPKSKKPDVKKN
Briefly: Nrf2 degradation in A549 HiBiT-Nrf2 cells, Nano-Glo HiBiT lytic detection (HiBiT readout). Also noted: host or cells: A549 HiBiT-Nrf2 cells (engineered line bought from Promega). An outline of the steps: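 A549 HiBiT-Nrf2 cells seeded at 5,000 cells/well in Ham's F-12 with 10% FBS, then treated next day for 6 h and 20 h at 37 °C, 5% CO2. Nrf2 degradation read by Nano-Glo HiBiT lytic luminescence after 30 min at room temperature; staurosporine served as control.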
Background: HiBiT is a short tag that completes a luciferase, so light tracks the accessible tagged protein.

The test system of a further experiment is A549. In words: Cancer cell viability, A549 (CellTiter-Glo). To be noted: Homo sapiens, 72 h, A549 cells, 3 days, read-out: Cellular IC50 (μM) A549. The method, boiled down:
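A549 and/or LK-2 lung carcinoma cells seeded overnight (20 K/mL A549; 35 K/mL LK-2), then exposed to compound for 3 days. Viability read as CellTiter-Glo luminescence after 15 min lysis; data fitted to curves.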

The test system of another experiment is LK-2. In words: Cancer cell viability, LK-2 (CellTiter-Glo). The note with it: LK-2 cells, 3 days, read-out: Cellular IC50 (μM) LK-2. The protocol: Representative Compounds of the Disclosure were tested in A549 (Vendor: ATCC; Cat #CCL-185; Description: lung, carcinoma) and/or LK-2 (Vendor: Riken; Cat #RCB1970; Description: lung, squamous cell carcinoma) cellular viability assays according to the following general protocol. • 1. Observed the cells under microscope. • 2. Aspirated the media and added 5 mL trypsin and incubate for 3 mins. • 3. Added 10 mL fresh media and harvested all the cells in to 15 mL tubes. • 4. Centrifuged the cells at 1000 rpm for 5 mins. • 5. Re-suspended the cells with 11 mL media and took 1 mL to determine the cell number and viability. • 6. Prepared cells suspension at 20 K/mL (A549) or 35 K/mL (LK-2) • 7. Seeded the cells into 96-well plate and incubated for overnight. • 8. Added compounds into each well with a HPD300 machine (nine three-fold dilutions typically starting at 30 µM final concentration) and incubated for 3 days. • 9. After 3 days, took out the plates from the incubator and observed the cells under microscope. • 10. Passed a film at the bottom of the plates. • 11. Equilibrated the plate and its contents at room temperature for approximately 30 minutes. • 12. Thawed the CellTiter-Glo® Buffer and equilibrated to room temperature prior to use. • 13. Equilibrated the lyophilized CellTiter-Glo® Substrate to room temperature prior to use. • 14. Transferred 100 ml of CellTiter-Glo® Buffer into the amber bottle containing CellTiter-Glo® Substrate to reconstituted the lyophilized enzyme/substrate mixture. • 15. Mixed by gently vortexing, swirling or inverting the contents to obtain a homogeneous solution. • 16. Added 100 μL CellTiter-Glo® Reagent into each well • 17. Mixed contents for 15 minutes on an orbital shaker to induce cell lysis. • 18. Recorded luminescence with EnSpire machine. • 19. Passed the raw data into the file and analyzed the data with XLfit software.

The mark [1] stands for this setting: 6 h, read-out: DC50 (nM) at 6 h.
Where [2] appears, read: 20 h, read-out: DC50 (nM) at 20 h.

Where two headings read alike, the source gives them in different places.

For the molecule `Cc1ccccc1C(=O)N1CCc2cc(-c3nc(NC(=O)Cc4cccc(OCCOCCNc5ccc6c(c5)C(=O)N(C5CCC(=O)NC5=O)C6=O)c4)sc3C)ccc21` (stereo not shown) [Cpd. No. 20, 2-(3-(2-(2-((2-(2,6-dioxopiperidin-3-yl)-1,3-dioxoisoindolin-5-yl)amino)ethoxy)ethoxy)phenyl)-N-(5-methyl-4-(1-(2-methylbenzoyl)indolin-5-yl)thiazol-2-yl)acetamide], the 50% degradation concentration (DC50) at Nrf2 (setting [1]) and on Nrf2 (setting [2]) was 300 to 3000 nM throughout. The IC50 – broadly, the concentration at which inhibition is half-maximal – in the experiment on A549 was determined as 0.3 µM; in the experiment on LK-2 (Homo sapiens, LK-2, 72 h) it was 0.06 µM.
In the case of `Cc1sc(NC(=O)Cc2ccc(F)c(OCCOCCNc3ccc4c(c3)C(=O)N(C3CCC(=O)NC3=O)C4=O)c2)nc1-c1ccc2c(c1)CCN2C(=O)C1CC1` (stereo not shown) [Cpd. No. 27, N-(4-(1-(cyclopropanecarbonyl)indolin-5-yl)-5-methylthiazol-2-yl)-2-(3-(2-(2-((2-(2,6-dioxopiperidin-3-yl)-1,3-dioxoisoindolin-5-yl)amino)ethoxy)ethoxy)-4-fluorophenyl)acetamide], the DC50 at Nrf2 (setting [1]) and at Nrf2 (setting [2]) was below 300 nM in each case. In addition, the half-inhibitory concentration (IC50) in the experiment on A549 was 0.08 µM; in the experiment on LK-2 (Homo sapiens, LK-2, 72 h) it was 0.03 µM.
With `Cc1sc(NC(=O)Cc2ccc(F)c(OCCOCCNc3ccc4c(c3)CN(C3CCC(=O)NC3=O)C4=O)c2)nc1-c1ccc2c(c1)CCN2C(=O)C1CC1` (stereo not shown) [Cpd. No. 28, N-(4-(1-(cyclopropanecarbonyl)indolin-5-yl)-5-methylthiazol-2-yl)-2-(3-(2-(2-((2-(2,6-dioxopiperidin-3-yl)-1-oxoisoindolin-5-yl)amino)ethoxy)ethoxy)-4-fluorophenyl)acetamide], the 50% degradation concentration (DC50) on Nrf2 (setting [1]) and at Nrf2 (setting [2]) was below 300 nM throughout. The IC50 came to 0.03 µM in the experiment on A549 and 0.01 µM with LK-2 (Homo sapiens, LK-2, 72 h).
For `Cc1sc(NC(=O)Cc2ccc(F)c(OCCOCCNc3ccc4c(c3)C(=O)N(C3CCC(=O)NC3=O)C4=O)c2)nc1-c1ccc2c(c1)CCN2C(=O)c1cncn1C` (stereo not shown) [Cpd. No. 29, 2-(3-(2-(2-((2-(2,6-dioxopiperidin-3-yl)-1,3-dioxoisoindolin-5-yl)amino)ethoxy)ethoxy)-4-fluorophenyl)-N-(5-methyl-4-(1-(1-methyl-1H-imidazole-5-carbonyl)indolin-5-yl)thiazol-2-yl)acetamide], the DC50 on Nrf2 (setting [1]) and on Nrf2 (setting [2]) was below 300 nM in each case. In addition, the half-maximal inhibitory concentration (IC50) in the experiment with A549 is 0.05 µM; with LK-2 (Homo sapiens, LK-2, 72 h) it was 0.01 µM; in the experiment with LK-2, 0.02 µM.
For `Cc1ccccc1C(=O)N1CCc2cc(-c3nc(NC(=O)Cc4cccc(OCCN5CCN(c6cccc7c6C(=O)N(C6CCC(=O)NC6=O)C7=O)CC5)c4)sc3C)ccc21` (stereo not shown) [Cpd. No. 31, 2-(3-(2-(4-(2-(2,6-dioxopiperidin-3-yl)-1,3-dioxoisoindolin-4-yl)piperazin-1-yl)ethoxy)phenyl)-N-(5-methyl-4-(1-(2-methylbenzoyl)indolin-5-yl)thiazol-2-yl)acetamide], the DC50 at Nrf2 (setting [1]) and at Nrf2 (setting [2]) was above 3000 nM throughout. The IC50 was above 30 µM in the experiment on A549 and above 30 µM in the experiment with LK-2 (Homo sapiens, LK-2, 72 h).
On to `Cc1sc(NC(=O)Cc2cccc(OCCOCCNc3cccc4c3C(=O)N(C3CCC(=O)NC3=O)C4=O)c2)nc1-c1ccc2c(c1)CCN2C(=O)c1cncn1C` (stereo not shown) [Cpd. No. 35, 2-(3-(2-(2-((2-(2,6-dioxopiperidin-3-yl)-1,3-dioxoisoindolin-4-yl)amino)ethoxy)ethoxy)phenyl)-N-(5-methyl-4-(1-(1-methyl-1H-imidazole-5-carbonyl)indolin-5-yl)thiazol-2-yl)acetamide], for which the values for the DC50 on Nrf2 (setting [1]) and at Nrf2 (setting [2]) were below 300 nM and above 3000 nM, respectively. For the same molecule, the half-maximal inhibitory concentration (IC50) with A549 was found to be 0.03 µM; in the experiment on LK-2 (Homo sapiens, LK-2, 72 h) it was 0.01 µM.
Regarding `Cc1sc(NC(=O)Cc2ccc(F)c(OCCOCCNc3cccc4c3C(=O)N(C3CCC(=O)NC3=O)C4=O)c2)nc1-c1ccc2c(c1)CCN2C(=O)C1CC1` (stereo not shown) [Cpd. No. 36, N-(4-(1-(cyclopropanecarbonyl)indolin-5-yl)-5-methylthiazol-2-yl)-2-(3-(2-(2-((2-(2,6-dioxopiperidin-3-yl)-1,3-dioxoisoindolin-4-yl)amino)ethoxy)ethoxy)-4-fluorophenyl)acetamide], the DC50 at Nrf2 (setting [1]) and on Nrf2 (setting [2]) was below 300 nM throughout. Also, the concentration for half-maximal inhibition (IC50) is 0.06 µM in the experiment with A549 and 0.03 µM in the experiment on LK-2 (Homo sapiens, LK-2, 72 h).
For the molecule `Cc1sc(NC(=O)Cc2ccc(F)c(OCCOCCNc3cccc4c3C(=O)N(C3CCC(=O)NC3=O)C4=O)c2)nc1-c1ccc2c(c1)CCN2C(=O)c1cncn1C` (stereo not shown) [Cpd. No. 37, 2-(3-(2-(2-((2-(2,6-dioxopiperidin-3-yl)-1,3-dioxoisoindolin-4-yl)amino)ethoxy)ethoxy)-4-fluorophenyl)-N-(5-methyl-4-(1-(1-methyl-1H-imidazole-5-carbonyl)indolin-5-yl)thiazol-2-yl)acetamide], the DC50 at Nrf2 (setting [1]) and at Nrf2 (setting [2]) was below 300 nM in each case. The IC50 in the experiment on A549 is 0.04 µM; with LK-2 (Homo sapiens, LK-2, 72 h) it was 0.01 µM.
Consider `Cc1sc(NC(=O)Cc2cccc(OCCCCCNc3cccc4c3C(=O)N(C3CCC(=O)NC3=O)C4=O)c2)nc1-c1ccc2c(c1)CCN2C(=O)C1CC1` (stereo not shown) [Cpd. No. 40, N-(4-(1-(cyclopropanecarbonyl)indolin-5-yl)-5-methylthiazol-2-yl)-2-(3-((5-((2-(2,6-dioxopiperidin-3-yl)-1,3-dioxoisoindolin-4-yl)amino)pentyl)oxy)phenyl)acetamide], for which the 50% degradation concentration (DC50) on Nrf2 (setting [1]) and at Nrf2 (setting [2]) was below 300 nM throughout. In addition, the concentration for half-maximal inhibition (IC50) with A549 turned out to be 0.11 µM; in the experiment with LK-2 (Homo sapiens, LK-2, 72 h), 0.08 µM.
